The source of these data is paper PMC7112612 (The Journal of Infection, 2013).

In brackets after ≈: the same amount, converted by molar mass. Several values for one entry are separate records, joined by “and”; a condition that tells them apart may be missing. Identical values can stand only once. Entries after “also recorded” stand apart in the source; their conditions may differ. Counter-ions that a name gives are not always drawn. Like-named read-outs stand apart in the source and are kept apart here. Some results are limits rather than exact numbers.

In series [1] the test system is influenza A/WSN/1933 (H1N1) virus. As to the kind of experiment: microbe, parasite or virus in culture. Format: cell-based. As to conditions: for EC50: Influenza A virus, H1N1|WSN, MDCK.
The test system of a further series is MDCK cells. Conditions: dog.
The subject of series [2] is MERS-CoV. Type of series: cell-based.
A further series can be described thus: in vitro. As to conditions: African green monkey.
The test system of the next series is SARS-CoV. Conditions: mouse, in vivo; cited from earlier work.
The test system of series [3] is MERS-CoV. Type of series: cell-based. The source holds these as a separate data set.
For series [4], the system named is MERS-CoV. As to the kind of experiment: microbe, parasite or virus in culture. Format: cell-based.
The conditions of series [5]: in vivo, cited from earlier work.
The test system of a further series is uninfected MDCK cells. As to conditions: cited from earlier work.
[6] abbreviates: Middle East respiratory syndrome-related coronavirus, Vero.

Turning to `CC[C@H]1CN2CCc3cc(OC)c(OC)cc3[C@@H]2C[C@@H]1C[C@H]1NCCc2cc(OC)c(OC)cc21` [Emetine], in [1], the “Result of chemical library screening” value was “primary hits with protective results” and the EC50 was 14.7 µM. The molecule further showed a TC50 in the series on MDCK cells of 17.00 µM.
In the case of `COc1c(C)c2c(c(O)c1C/C=C(\C)CCC(=O)O)C(=O)OC2` [Mycophenolic acid], in the series with MERS-CoV [2], the “anti-MERS-CoV activity at the tested concentrations (in words)” value (shortened to “anti-MERS-CoV activity”) is listed as “showed anti-MERS-CoV activity” and the “concentration at which CPE was completely absent” value is at least 0.063 µg/mL. In addition, the CC50 in the series “in vitro” is over 32 µg/mL. The “efficacy against SARS-CoV in an animal model (in words)” value with SARS-CoV is reported as “ineffective”. Besides, the “concentration achieving 100% plaque reduction” value in the series on MERS-CoV [3] worked out at 6.4 µg/mL. In series [1], the “Result of chemical library screening” value is given as “primary hits with protective results”. In the series with MDCK cells, the TC50 was 170.00 µM. Moreover, in the series with MERS-CoV [4], the EC99 turned out to be 4.86 ± 0.57 µg/mL, the Selectivity index is given as over 195.12 and the “reduction in viral load” value is recorded as over 2 log. In the series on MERS-CoV [4] (setting [6]), this molecule yielded an EC50 of 0.17 ± 0.03 µg/mL (≈ 0.531 µM) and an EC90 of 2.61 ± 0.34 µg/mL (≈ 8.15 µM). The “reduction in viral load” value with MERS-CoV [4] (at 16 μg/ml) is on record as about 4 log.
Consider `NC12CC3CC(CC(C3)C1)C2` [Amantadine], for which the “Result of chemical library screening” value in series [1] is “not identified”.
For the molecule `Cc1cccc(C)c1OCC(=O)N[C@@H](Cc1ccccc1)[C@@H](O)C[C@H](Cc1ccccc1)NC(=O)[C@H](C(C)C)N1CCCNC1=O` [lopinavir], in the series on MERS-CoV [2], the “anti-MERS-CoV activity” value is “suboptimal EC50; also recorded: not found to be active”.
For the molecule `Cc1cccc(Nc2ccccc2C(=O)O)c1C` [Mefenamic acid], the Serum concentration in series [5] (po) is 10 [1 g] μg/ml. Besides, in series [1], the “Result of chemical library screening” value is “primary hits with protective results”, the Selectivity index is given as 4.00 and the EC50 came to 50 µM. The molecule further had a TC50 in the series with MDCK cells of 200.00 µM.
For `Cc1c(O)cccc1C(=O)N[C@@H](CSc1ccccc1)[C@H](O)CN1C[C@H]2CCCC[C@H]2C[C@H]1C(=O)NC(C)(C)C` [nelfinavir mesylate hydrate], in the series with MERS-CoV [2], the “anti-MERS-CoV activity” value was “suboptimal EC50”.
With `Sc1ncnc2nc[nH]c12` [Mercaptopurine], in series [5] (po), the Serum concentration is 0.09 [50 mg/m^2] μg/ml. Also, in series [1], the “Result of chemical library screening” value was “primary hits with protective results”, the Selectivity index is reported as 4.00 and the EC50 came out at 26.5 µM. In the series on MDCK cells, this molecule yielded a TC50 of 100.00 µM.
With `CCc1nc(N)nc(N)c1-c1ccc(Cl)cc1` [Pyrimethamine], the Serum concentration in series [5] (po) was 0.55 [1500/75 mg of sulfadoxine/pyrimethamine] μg/ml. Further, in [1], the “Result of chemical library screening” value is given as “primary hits with protective results”, the Selectivity index came out at 1.80 and the EC50 is 3.1 µM. Besides, in the series with MDCK cells, the TC50 stood at 5.40 µM.
In the case of `C[C@]12CC[C@@H]3c4ccc(O)cc4CC[C@H]3[C@@H]1CC[C@@H]2O` [Estradiol], in series [1], the “Result of chemical library screening” value was “primary hits with protective results”, the Selectivity index was 3.00 and the EC50 stood at 20 µM. Moreover, in the series with MDCK cells, the TC50 stood at 75.00 µM.
`COc1c(C)c2c(c(O)c1C/C=C(\C)CCC(=O)OCCN1CCOCC1)C(=O)OC2` [Mycophenolate mofetil]: the “average plasma elimination half-life” value in series [5] (iv, 1500 mg) was 16.6 h; in series [5] (po, 1000 mg) it was 17.9 h.
Take `Cc1c(Cl)cccc1Nc1ccccc1C(=O)O` [Tolfenamic acid]: the Serum concentration in series [5] (po) was 4.1 [300 mg] μg/ml. Moreover, in series [1], the “Result of chemical library screening” value is on record as “primary hits with protective results”, the Selectivity index is 8.00 and the EC50 worked out at 7.94 µM. For the same molecule, in the series with MDCK cells, the TC50 was 64.00 µM.
As for `Cc1ccc(Cl)c(Nc2ccccc2C(=O)O)c1Cl` [Meclofenamate sodium], the Serum concentration in [5] (po) is 4.8 [100 mg tds] μg/ml. Besides, in series [1], the “Result of chemical library screening” value is given as “primary hits with protective results”, the Selectivity index worked out at 2.00 and the EC50 came out at 45 µM. In the series on MDCK cells, this molecule showed a TC50 of 100.00 µM.
Turning to `O=C(O)c1ccccc1Nc1cccc(C(F)(F)F)c1` [Flufenamic acid], the Serum concentration in series [5] (po) is 6–20 [200 mg] μg/ml. Besides, in [1], the “Result of chemical library screening” value is reported as “primary hits with protective results”, the Selectivity index was 12.60 and the EC50 was determined as 6.3 µM. In the series with MDCK cells, this molecule returned a TC50 of 79.16 µM.
As for `NC(=O)c1ncn([C@@H]2O[C@H](CO)[C@@H](O)[C@H]2O)n1` [Ribavirin], the “anti-MERS-CoV activity” value in the series on MERS-CoV [2] is “showed anti-MERS-CoV activity”. The CC50 in the series “in vitro” was over 1600 µg/mL. The “concentration achieving 100% plaque reduction” value with MERS-CoV [3] was determined as 400 µg/mL. Besides, the “concentration inhibiting replication of uninfected MDCK cells” value in the series on uninfected MDCK cells was at least 10000 ng/mL. The peak concentration result in series [5] (iv) is listed as “approximately 24 μg/ml”. In addition, in series [5] (po), the Serum concentration was 2.2 [4 weeks of 600 mg bd] μg/ml. Moreover, in [1], the “Result of chemical library screening” value was “primary hits with protective results”, the Selectivity index is reported as 8.00 and the EC50 is 20 µM. Moreover, the TC50 with MDCK cells came out at 168.00 µM. In the series on MERS-CoV [4], the EC99 was 183.17 ± 11.97 µg/mL, the Selectivity index is over 152.98 and the “reduction in viral load” value was over 2 log. Further, in the series with MERS-CoV [4] (setting [6]), the EC50 was 9.99 ± 2.97 µg/mL (≈ 40.9 µM) and the EC90 came to 107 ± 11.2 µg/mL (≈ 438 µM).

B1: Imukin (protein, UniProt P01579 24-161, looked up)
Interferon gamma: QDPYVKEAENLKKYFNAGHSDVADNGTLFLGILKNWKEESDRKIMQSQIVSFYFKLFKNFKDDQSIQKSVETIKEDMNVKFFNSNKKKRDDFEKLTNYSVTDLNVQRKAIHELIQVMAELSPAAKTGKRKRSQMLFRG
With B1, the “anti-MERS-CoV activity” value in the series with MERS-CoV [2] was “suboptimal EC50”.

B2: Betaferon (protein, UniProt P01574 22-187, looked up, variant C17S)
Interferon beta: MSYNLLGFLQRSSNFQSQKLLWQLNGRLEYCLKDRMNFDIPEEIKQLQQFQKEDAALTIYEMLQNIFAIFRQDSSSTGWNETIVENLLANVYHQINHLKTVLEEKLEKEDFTRGKLMSSLHLKRYYGRILHYLKAKEYSHCAWTIVRVEILRNFYFINRLTGYLRN
modifications: lacks N-terminal Met1
With B2, in the series on MERS-CoV [2], the “anti-MERS-CoV activity” value is recorded as “showed anti-MERS-CoV activity”. In addition, in the series on MERS-CoV [3], the “maximum percentage of plaque reduction” value is recorded as 66.6% and the plaque reduction is on record as 40–50%. In addition, the “mean peak serum concentration” value in series [5] is listed as 40 IU/ml. For the same molecule, in the series with MERS-CoV [4], the EC50 was 17.64 IU/ml and 17.64 ± 1.09 IU/ml; the EC90 is listed as 93.31 ± 10.07 IU/ml; the EC99 is reported as 135.70 ± 15.96 IU/ml. The CC50 in the series on Vero cells came out at 3125 IU/ml.
